Source: patent US10077464B2, “Micro-organism detection medium comprising at least one alkyl(thio)glycoside” (Biomérieux, priority 2012, dated 2018)

Experiments:
[1] = system: Microorganisms of the genus Salmonella; assay: Detection of salmonellae, all strains of Example 1; type: cell-based; details: alkylglycoside in place of Tween 20, Example 1
Experimental: A stock solution of the enzyme substrate 5-bromo-6-chloro-3-indoxyl caprylate (magenta-C8) is made in a DMSO-type solvent. A volume of this stock solution which makes it possible to obtain a final substrate concentration of 360 mg/L is then added into flasks respectively containing Tween 20 (final concentration 6 g/L), n-octyl-β-D-glucopyranoside (OG) to final concentrations of 0.7, 2 and 6 g/L, and n-dodecyl-β-D-maltoside (DM) to the same concentrations. The different solutions are agitated and the volumes are introduced into supercooled agar media (chromID® Salmonella media).
Microorganisms of the genus Salmonella from the Applicant's collection were seeded on each of the aforementioned media in accordance with the three-dial technique from bacterial suspensions calibrated to 0.5 McF. The strains were selected for their low to average expression of esterase activity, giving low to average violet coloration intensities on the chromID® Salmonella medium marketed by bioMérieux (under the references 43621 and 43629).
The dishes were incubated for 24 h at 37° C. Then the colonies which formed were examined visually after 24 h of incubation. The coloration intensities were recorded.

[2] = system: P. aeruginosa and A. baumannii; assay: Detection of P. aeruginosa and A. baumannii, all strains of Example 2; type: cell-based
Experimental: Two stock solutions at 25 g/L of ALDOL™ 470-nonanoate (ALDOL 470-C9, developed by Biosynth AG, Rietlisstrasse 4,9422 Staad, Switzerland) and of ALDOL™ 495-nonanoate (ALDOL 495-C9, also developed by Biosynth AG, Rietlisstrasse 4,9422 Staad, Switzerland) are made in a DMSO-type organic solvent. Then a volume corresponding to a final concentration of enzyme substrates of 200 mg/L is added into flasks containing respectively: Tween 20 (final concentration in the medium of 6 g/L), and DM (final concentrations of 0.7, 2 and 6 g/L). The different flasks are vigorously agitated, then all of the contents are added into the supercooled agar media: TSA (trypticase soy agar) base.
Bacteria from the Applicant's collection were seeded on each of the aforementioned media in accordance with the three-dial technique from bacterial suspensions calibrated to 0.5 McF. The dishes were incubated for 24 h at 37° C. and the colonies formed were analysed visually. Thus, the colorations and the coloration intensities were recorded.

SMILES	Esterase activity detection sensitivity in Salmonella [1]	Detection of the strains tested ([2]; replacement of the Tween 20 at 6 g/L by DM at the same concentration, whatever the enzyme substrate)	Detection of the esterase activity of the microorganisms ([2]; substitution of Tween 20 by DM, Example 2)
CCCCCCCCO[C@@H]1O[C@H](CO)[C@@H](O)[C@H](O)[C@H]1O [OG, n-octyl-β-D-glucopyranoside]	improve the esterase activity detection sensitivity in Salmonella	–	–
CCCCCCCCCCCCO[C@@H]1O[C@H](CO)[C@@H](O[C@H]2O[C@H](CO)[C@@H](O)[C@H](O)[C@H]2O)[C@H](O)[C@H]1O [DM, n-dodecyl-β-D-maltoside]	improve the esterase activity detection sensitivity in Salmonella	detect all of the strains tested	improves the detection of the esterase activity of the microorganisms
